Measurements from article PMC12108296, “Physicochemical Characterization of Kynurenine Pathway Metabolites” (Antioxidants, 2025).
Values joined by “and” are separate entries in the source; they are usually repeats but may differ in a detail not shown here. Equal values may be shown once. Read-outs that look alike come from different tables or passages of the source.

What was measured:
[1] = 1H NMR-pH titration (macroscopic and microscopic pKa); format: physicochemical; conditions: for pKa: H2O/D2O 95:5 (v/v); for predominant protonation/charge form at physiological pH: physiological pH (7.4), from the determined acid-base constants; for pKaC^A (NMR): second step dissociation microconstant of the aromatic ammonium group; for pKaA^C (NMR): second step dissociation microconstant of the carboxyl group
Experimental: NMR spectra were recorded on a 400 MHz Varian Mercury Plus spectrometer equipped with a 5 mm Varian 400 Automation Triple Resonance Broadband Pulsed Field Gradient probe at 298.15 ± 0.1 K. The solvent was H2O/D2O 95:5 (v/v), the solution contained around 5 mmol/L titrand, and the ionic strength was adjusted to 0.15 mol/L. The pH values were adjusted with 2–5 mol/L HCl or NaOH (in order to avoid substantial dilution of the solution) and determined in situ by internal indicator molecules optimized for ^1H NMR [27, 28]. The sample volume was 500 μL containing DSS (3-(trimethylsilyl)propane-1-sulfonate) as a chemical shift reference. The H2O ^1H signal was suppressed with a WET sequence; the average acquisition parameters for ^1H measurements are number of transients = 8, number of points = 65,536, acquisition time = 3.33 s, and relaxation delay = 1.5 s. All spectra were processed using the MestReNova v9.0.1-13254 (Mestralab Research, S.L., Santiago de Compostela, Spain) software. NMR-pH titrations were performed once, and resulting pKa values are reported with ± standard error of the model fit.
The corollary of this assumption is not so obvious, however: the aliphatic ^1H NMR signals are relatively close to the aromatic amino group (in terms of covalent distance), especially the methylene group (5 covalent distance), therefore selectivity of aliphatic ^1H NMR signals in favor of aliphatic ammonium and carboxyl dissociation is dubious. This, however, can be exploited: the titration curve of the methylene group thus affords all three macroconstants, including Ka1, Ka2 in the acidic region (Equation (1)), while the aromatic and αCH ^1H NMR signals selectively afford the microconstants KaC^A (second step dissociation microconstant of the aromatic ammonium group), KaA^C (second step dissociation microconstant of the carboxyl group) (Equation (2)). […] Note that Equation (2) in its current form applies to the titration curves of the aromatic signals; for the αCH signal, Equation (2) is rewritten with KaC^A and KaA^C exchanged. For the curve fitting of Equation (2), the macroconstants are treated as fixed parameters transferred from the fitting of Equation (1).(1) δobs=δL+δHL·Ka2·10^−pH+δH2L·Ka1·Ka2·10^−2·pH/1+Ka2·10^−pH+Ka1·Ka2·10^−2·pH (2) δobs=δL·1+KaCA·10^−pH+δHL·KaAC·10^−pH+Ka1·Ka2·10^−2·pH/1+Ka2·10^−pH+Ka1·Ka2·10^−2·pH
The remaining dissociation microconstants (Ka^C and Ka^A) were calculated using Equation (3). Modern theoretical considerations of acid-base microconstant determination can be found in the works of Noszál and Borkovec, while some examples can be found in recent works.(3) pKa1+pKa2=pKaA+pKaAC=pKaC+pKaCA
The titration of 3-hydroxykynurenine (Figure 5) was treated the same way as for kynurenine, with the difference that 3-hydroxykynurenine has an overlapping dissociation in the basic pH region as well (the primary aliphatic ammonium dissociation overlaps with the dissociation of the phenol group). The same principle can be applied to the macro- and microconstant determination of kynurenine; only the last two macroconstants were transferred from potentiometric titration data since the latter is more precise than NMR-pH determined values and the chemical shift response of the methylene group towards the phenol dissociation (6 covalent distance) is not expected to be reliable. Otherwise, the microconstants of the basic pH range (KaACN^O—phenol group, KaACO^N—primary aliphatic ammonium group) were determined by fitting an analog (featuring Ka3 and Ka4) of Equation (2) to the titration data of all ^1H NMR signals. Note that the fitted pKaACN^O falls very close to the calculated pKaAC^N; therefore, to ensure a decreasing sequence of Ka values in every microscopic protonation pathway, an additional constraint was used during fitting: pKaACN^O be greater than the mean of pKa3 and pKa4. […]

[2] = pH-potentiometric titration (pKa); format: physicochemical
Experimental: An ECO automatic titrator (Metrohm AG, Herisau, Switzerland) with a Metrohm 6.0234.110 combined pH glass electrode was used for the potentiometric titrations under automatic PC control. The electrode was calibrated with aqueous standard buffer solutions. Constant temperature (298.15 ± 0.1 K) was provided by a thermostated double-walled glass cell. Difference titrations were carried out in the absence (blank) and presence of the titrand. First, 2 mL of 0.1 mol/L HCl solutions were titrated with 0.1 mol/L KOH. A constant ionic strength of 0.15 mol/L was provided by the presence of KCl. Next, a titrand was added to the same volume of HCl solution and subsequently titrated with KOH. The initial concentration of the titrand was around between 3 and 6 mmol/L in the titrations. Non-linear parameter fitting provided the dissociation constants from the interpolated volume differences. Potentiometric titrations were performed in triplicates, and the resulting pKa values are reported with ± standard error of the three fitted values.

[3] = tested on: ROS; design: method as in PMID 21763768; conditions: cited from earlier work
[4] = cited from earlier work; for pKa (first value) / pKa (second value): no mention of experimental methods
[5] = UV-pH titration (pKa); format: physicochemical; conditions: for pKa: aqueous HCl/NaOH solutions of varying pH
Experimental: UV spectroscopic measurements were carried out on a Jasco V-550 diode-array spectrometer (Jasco Ltd., Tokyo, Japan) with 10 mm quartz cuvettes at 298 K. The titrand was diluted with an acidic (HCl) and a basic (NaOH) stock solution to the same analyte concentration (adjusting ionic strength to 0.15 mol/L). In the case of kynurenic acid, a saturated acidic solution was diluted 10 times with HCl and NaOH, respectively, to obtain the stock solutions. Sample solutions with varying pH were prepared by mixing the two stock solutions in varying ratios. pH values were read on a Metrohm 2.780.0010 precision pH meter with a 6.0258.600 Unitrode glass Pt 1000 electrode (Metrohm AG, Herisau, Switzerland), and the pH-potentiometric system was calibrated using standard buffer solutions.

[6] = in vitro parallel permeability assay (PAMPA); format: in vitro ADME; conditions: passive transport only
Experimental: To further obtain additional information regarding the microspeciation scheme, the synthesis of methyl ester derivatives was attempted since these model compounds could provide the value of microconstants for cases where the carboxylic acid group is undissociated. […] In the first attempt, the compounds were each dissolved with 1-ethyl-3-(3-dimethylaminopropyl)carbodiimide (EDAC) and triethylamine in dichloromethane, and after fifteen minutes, methanol was added to the mixture, which was stirred overnight at room temperature. After this, the solution was washed with saturated sodium bicarbonate solution and distilled water. The organic phase was dried over sodium sulfate and then removed from the rotary evaporator. In the second attempt, the compounds were each dissolved in methanol, and the solution was cooled to 0 °C. Thionyl chloride was added dropwise, and the mixture was stirred at the same temperature for four hours. Then, the solvent was removed from the rotary evaporator, yielding an oily residue. […] The measurement of lipophilicity and membrane penetration of kynurenine and 3-hydroxykynurenine was also attempted; however, due to the extremely low predicted logP value of these compounds, it was not unexpected that obtaining such experimental data would not be feasible. […]

[7] = first step microconstant of the aromatic ammonium group, calculated using Equation (3), read-out: pKa^A
[8] = first step microconstant of the carboxyl group, calculated using Equation (3), read-out: pKa^C
[9] = macroconstant from methylene signal, 298.15 K, ionic strength 0.15 mol/L, read-out: pKa1 (NMR)
[10] = macroconstant from methylene signal, 298.15 K, ionic strength 0.15 mol/L, read-out: pKa2 (NMR)
[11] = aqueous HCl solution with KCl, titrated with KOH, unreliable, since two values could not be fitted, read-out: single pKa fitted in the acidic pH region (pH potentiometry titration)

Question: What does the source list for `Nc1c(O)cccc1C(=O)CC(N)C(=O)O` (stereo not shown) [3-hydroxykynurenine]?
Answer: pKa [1, 7]: 1.82; pKa [1, 8]: 1.91; pKa [1, 9]: 1.56; pKa [1, 10]: 2.69; pKaAC^N ([1]; microconstant of the aliphatic ammonium group, phenol still protonated, calculated): 9.08; pKaAC^O ([1]; microconstant of the phenol group, aliphatic ammonium still protonated, calculated): 8.85; pKaACN^O (NMR) ([1]; microconstant of the phenol group, basic pH range, fit constrained to exceed mean of pKa3 and pKa4): 9.12; pKaACO^N (NMR) ([1]; microconstant of the primary aliphatic ammonium group, basic pH range): 9.35; predominant protonation/charge form at physiological pH [1]: zwitterionic form; pKaC^A (NMR) [1]: 2.34; pKaA^C (NMR) [1]: 2.43; pKa ([2]; aqueous HCl solution with KCl, titrated with KOH, macroconstant, 298.15 K, ionic strength 0.15 mol/L, read-out: pKa3 (potentiometry)): 8.65; pKa ([2]; aqueous HCl solution with KCl, titrated with KOH, macroconstant, 298.15 K, ionic strength 0.15 mol/L, read-out: pKa4 (potentiometry)): 9.55; pKa [2, 11]: 2.53 ± 0.03

Question: Which results are given for `O=C(O)c1cc(=O)c2ccccc2[nH]1` [kynurenic acid]?
Answer: concentration that can abolish iron(II) sulfate-induced ROS production [3]: exceeding 100 µM; dissociation step above pH 7 until 13 ([1]; potentiometric and NMR-pH titration attempts): no dissociation step; pKa of the radical form ([4]; radical form): 5.5; pKa ([2]; aqueous HCl solution with KCl, titrated with KOH, value is unreliable due to precipitate formation, read-out: pKa fitted (pH potentiometry titration)): 3.1 ± 0.1; solubility behaviour during titration ([2]; below pH 3, no issue above pH 3): precipitation; pKa ([5]; 10-fold diluted saturated solution, 298 K, ionic strength 0.15 mol/L, read-out: pKa (UV-pH titration, full spectrum measurement)): 2.44 ± 0.02; pKa ([5]; single dissociation step, UV-pH titration, 298 K, ionic strength 0.15 mol/L, read-out: pKa1 (UV)): ~2.4; pKa1 (UV) ([5]; single dissociation step, UV-pH titration, 298 K, ionic strength 0.15 mol/L): 2.43

Question: With `Nc1ccccc1C(=O)C[C@H](N)C(=O)O` [kynurenine] as the compound, how does the “membrane penetration/retention (PAMPA)” value [6] read?
Answer: no detectable membrane penetration/retention

Question: What about the pKa [1, 7] of the same compound?
Answer: 1.39

Question: And the pKa [1, 8]?
Answer: 1.63

Question: And the pKa [1, 9]?
Answer: 1.19

Question: And the pKa [1, 10]?
Answer: 2.49

Question: And the pKa ([1]; macroconstant, aliphatic ammonium, 298.15 K, ionic strength 0.15 mol/L, read-out: pKa3 (NMR))?
Answer: 9.33

Question: What about the “predominant protonation/charge form at physiological pH” value [1] of the same compound?
Answer: zwitterionic form

Question: And the “pKaC^A (NMR)” value [1]?
Answer: 2.05 ± 0.04 and 2.05

Question: What about the “pKaA^C (NMR)” value [1] of the same compound?
Answer: 2.29 ± 0.03 and 2.29

Question: And the pKa ([2]; aqueous HCl solution with KCl, titrated with KOH, 298.15 K, ionic strength 0.15 mol/L, read-out: pKa fitted in the basic pH region (pH potentiometry titration))?
Answer: 9.13 ± 0.02

Question: And the pKa [2, 11]?
Answer: 2.39 ± 0.04

Question: And the “pKaC^A (UV-pH titration)” value ([5]; second step dissociation microconstant of the aromatic ammonium group)?
Answer: 2.08 ± 0.2

Question: And the “pKaA^C (UV-pH titration)” value ([5]; second step dissociation microconstant of the carboxyl group)?
Answer: 2.33 ± 0.05

Question: Which pKa ([1]; ± standard error of fit, 298.15 K, ionic strength 0.15 mol/L, H2O/D2O 95:5, read-out: pKa (NMR-pH titration)) does the source give for `O=C(O)c1ccccn1` [picolinic acid] here?
Answer: 5.19 ± 0.02

Question: And the “pH of a further dissociation step indicated by shift of NMR signals” value ([1]; slight systematic shift below pH 1.5, outside the range of determination)?
Answer: < 1

Question: What about the “pKa (first value)” value ([4]; ref 25) of the same compound?
Answer: 1.0

Question: What about the “pKa (second value)” value ([4]; ref 25) of the same compound?
Answer: 5.4

Question: And the “pKa (first value)” value ([4]; ref 26)?
Answer: 1.07

Question: And the “pKa (second value)” value ([4]; ref 26)?
Answer: 5.25

Question: And the pKa ([2]; aqueous HCl solution with KCl, titrated with KOH, triplicate, ± standard error, 298.15 K, ionic strength 0.15 mol/L, read-out: pKa2 (potentiometry))?
Answer: 5.22 ± 0.01

Question: And the pKa ([2]; aqueous HCl solution with KCl, titrated with KOH, extreme acidic pKa of the carboxyl group, rough estimate, single nonlinear curve fit, 298.15 K, ionic strength 0.15 mol/L, read-out: pKa1 (by extrapolation of potentiometry))?
Answer: ~0.63

Question: What about the pKa ([2]; aqueous solution, ionic strength 0.15 mol/L, both titration techniques, 298.15 K, ionic strength 0.15 mol/L, read-out: pKa2 (mean of potentiometry and NMR)) of the same compound?
Answer: ~5.2

Question: What about the “pKa2 (mean of potentiometry and NMR)” value ([2]; both titration techniques, 298.15 K, ionic strength 0.15 mol/L) of the same compound?
Answer: 5.21

Question: And the “pKa1 (by extrapolation of potentiometry)” value ([2]; extreme acidic pKa of the carboxyl group, rough estimate, single nonlinear curve fit, 298.15 K, ionic strength 0.15 mol/L)?
Answer: ~0.6
